Experimental data reported in patent US5686485A, “Physiologically active EI-1941 compounds” (Kyowa Hakko Kogyo Co., Ltd., priority 1995, dated 1997).

Tests used:
Solubility = type: physicochemical; settings: in methanol and acetonitrile
[1] = test system: production of IL-1β by human monocyte-derived THP-1 cells; assay: Inhibitory activity against the production of IL-1β by human monocyte-derived THP-1 cells (LPS-stimulated, ELISA); type: cell-based; settings: THP-1 cells differentiated with PMA 30 nM, 65 h, LPS 25 μg/ml, 4 hours, serum-free RPMI1640, test compound 0.05-50 μg/ml, read-out: IC50 (50% inhibitory concentration), IL-1 production inhibition
Experimental: The inhibitory activity of EI-1941 compounds against the production of IL-1β by human monocyte-derived THP-1 cells (ATCC No. TIB 202) was examined in the following manner. The amount of IL-1β was determined by the ELISA method.
THP-1 cells were suspended in RPMI1640 medium (Nissui Pharmaceutical Co., Ltd.) containing 10% inactivated fetal calf serum at a concentration of 1×10^5 cells/ml. The cell suspension was put into wells of a 24-well plate in an amount of 1 ml/well. Phorbol 12-myristate 13-acetate (PMA, final concentration: 30 nM) was added to the wells, followed by incubation in a 5% CO2 -incubator at 37° C. for 65 hours to differentiate the cells into macrophage.
Then, the plate was gently washed with serum-free RPMI1640 medium to remove the cells which were not adhered to the wells, and the residue was cultured for 4 hours in serum-free RPMI1640 medium (1 ml/well) containing lipopolysaccharide (LPS, final concentration: 25 μg/ml) and a test compound (final concentration: 0.05-50 μg/ml).
After the completion of culturing, the amount of IL-1β released into the culture supernatant was determined by using an IL-1β determination kit (Amersham Corp.).
The IL-1 production inhibition rate was calculated according to the following equation to obtain IC50 (50% inhibitory concentration).
IL-1 production inhibition rate (%)=(A-B)/(A-C)×100
A: Amount of IL-1 produced when only LPS is added […]

IC50 [1] | Structure (SMILES) | Solubility (Solubility)
1000 nM | CCCC1CC2=C(C(O)O1)C(O)C1OC1C2=O (centres unmarked) [EI-1941-1] | Readily soluble in methanol and acetonitrile
2200 nM | CCCC1CC2=C(C(=O)O1)C(O)C1OC1C2=O (centres unmarked) [EI-1941-2] | Readily soluble in methanol and acetonitrile
 | CCCC1CC2=C(C(=O)O1)C(O)C(O)CC2=O (centres unmarked) [EI-1941-3] | Readily soluble in methanol and acetonitrile
